In patent publication US20230085307A1, “PYRIDAZINONE COMPOUND AND HERBICIDE” (NISSAN CHEMICAL CORPORATION, priority 2019, published 2023):

Key:
[1] = system: blackgrass; assay: Test Example 4: herbicidal effect by soil treatment (Table 19, symbol J); type: in vivo, blackgrass (Alopecurus myosuroides); conditions: amount of applied herbicide 320 g/ha
Summary of the method: (§1)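 Applied as a water-diluted emulsion, the compound was sprayed onto soil covering newly sown seeds. Evaluation came three weeks after application, in a greenhouse held at 25° C. to 30° C.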

[2] = system: lambsquarters; assay: Test Example 5: herbicidal effect by foliage application, plastic box (Table 20, symbol O); type: in vivo, lambsquarters (Chenopodium album); conditions: foliage application, AAH 320 g/ha, evaluated three weeks after application
Summary of the method: (§2)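 Sow seeds spot-wise in sterilized diluvial soil; cover with ~1.5 cm soil. Grow 14 days in greenhouse, 25° C. to 30° C. Spray foliage with emulsion diluted to predetermined amount. Rate effect after 3 weeks.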

[3] = system: southern crabgrass; assay: Test Example 4: herbicidal effect by soil treatment (Table 19, symbol F); type: in vivo, southern crabgrass (Digitaria ciliaris); conditions: amount of applied herbicide 320 g/ha
Summary of the method: as §1

[4] = system: velvetleaf; assay: Test Example 4: herbicidal effect by soil treatment (Table 19, symbol M); type: in vivo, velvetleaf (Abutilon theophrasti); conditions: amount of applied herbicide 320 g/ha
Summary of the method: as §1

[5] = system: green foxtail; assay: Test Example 4: herbicidal effect by soil treatment (Table 19, symbol G); type: in vivo, green foxtail (Setaria viridis); conditions: amount of applied herbicide 320 g/ha
Summary of the method: as §1

[6] = system: Japanese bulrush; assay: Test Example 2: herbicidal activity, application during weed generation under submerged conditions (Table 17, symbol B); type: in vivo, Japanese bulrush (Schoenoplectus juncoides); conditions: AAH 320 g/ha; application during weed generation, submerged conditions
Summary of the method: (§3)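 Steps: fill Wagner pots with alluvial soil; add water to give 4 cm depth; sow the species mixed; grow under glass at 25–30° C.; at 1–2 leaves apply water-diluted emulsion formulation to the water surface at a fixed herbicide amount; score after 3 weeks.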

[7] = system: barnyard grass; assay: Test Example 4: herbicidal effect by soil treatment (Table 19, symbol H); type: in vivo, barnyard grass (Echinochloa crus-galli); conditions: amount of applied herbicide 320 g/ha
Summary of the method: as §1

[8] = system: wild oat; assay: Test Example 4: herbicidal effect by soil treatment (Table 19, symbol I); type: in vivo, wild oat (Avena fatua); conditions: amount of applied herbicide 320 g/ha
Summary of the method: as §1

[9] = system: oval-leafed pondweed; assay: Test Example 2: herbicidal activity, application during weed generation under submerged conditions (Table 17, symbol C); type: in vivo, oval-leafed pondweed (Monochoria vaginalis); conditions: AAH 320 g/ha; application during weed generation, submerged conditions
Summary of the method: as §3

[10] = system: persian speedwell; assay: Test Example 5: herbicidal effect by foliage application, plastic box (Table 20, symbol R); type: in vivo, Persian speedwell (Veronica persica); conditions: foliage application, AAH 320 g/ha, evaluated three weeks after application
Summary of the method: as §2

[11] = system: redroot pigweed; assay: Test Example 4: herbicidal effect by soil treatment (Table 19, symbol N); type: in vivo, redroot pigweed (Amaranthus retroflexus); conditions: amount of applied herbicide 320 g/ha
Summary of the method: as §1

[12] = system: Italian ryegrass; assay: Test Example 5: herbicidal effect by foliage application, plastic box (Table 20, symbol K); type: in vivo, Italian ryegrass (Lolium multiflorum); conditions: foliage application, AAH 320 g/ha, evaluated three weeks after application
Summary of the method: as §2

[13] = system: green foxtail; assay: Test Example 5: herbicidal effect by foliage application, plastic box (Table 20, symbol G); type: in vivo, green foxtail (Setaria viridis); conditions: foliage application, AAH 320 g/ha, evaluated three weeks after application
Summary of the method: as §2

[14] = system: late watergrass; assay: Test Example 2: herbicidal activity, application during weed generation under submerged conditions (Table 17, symbol A); type: in vivo, late watergrass (Echinochloa oryzicola); conditions: AAH 320 g/ha; application during weed generation, submerged conditions
Summary of the method: as §3

Row | SMILES | herbicidal effect on J: blackgrass [1] | O: lambsquarters, herbicidal effect (criteria 0-5) [2] | herbicidal effect on F: southern crabgrass [3] | herbicidal effect on M: velvetleaf [4] | herbicidal effect on G: green foxtail [5] | herbicidal effect rating, B: Japanese bulrush [6] | herbicidal effect on H: barnyard grass [7] | herbicidal effect on I: wild oat [8] | herbicidal effect rating, C: oval-leafed pondweed [9] | R: persian speedwell, herbicidal effect (criteria 0-5) [10] | herbicidal effect on N: redroot pigweed [11] | K: Italian ryegrass, herbicidal effect (criteria 0-5) [12] | G: green foxtail, herbicidal effect (criteria 0-5) [13] | herbicidal effect rating, A: late watergrass [14]
1 | Cc1nn(C)c(=O)c(-c2c(-c3ccc(OC(F)F)cc3)sc3ccc(F)cc23)c1OC(=O)C1CCCO1 (stereo not shown) [2-289] | 5 (Herbicidal rate of 90% or more (almost completely withered)) | 5 (Herbicidal rate of 90% or more (almost completely withered)) | 5 (Herbicidal rate of 90% or more (almost completely withered)) | 5 (Herbicidal rate of 90% or more (almost completely withered)) | 5 (Herbicidal rate of 90% or more (almost completely withered)) | 3 (Herbicidal rate of 40% or more and less than 70%) | 5 (Herbicidal rate of 90% or more (almost completely withered)) | 2 (Herbicidal rate of 20% or more and less than 40%) | 4 (Herbicidal rate of 70% or more and less than 90%) | 5 (Herbicidal rate of 90% or more (almost completely withered)) | 5 (Herbicidal rate of 90% or more (almost completely withered)) | 5 (Herbicidal rate of 90% or more (almost completely withered)) | 5 (Herbicidal rate of 90% or more (almost completely withered)) | 3 (Herbicidal rate of 40% or more and less than 70%)
2 | CCOC(=O)Oc1c(C)nn(C)c(=O)c1-c1c(-c2ccc(OC(F)F)cc2)sc2ccc(F)cc12 [2-292] | 3 (Herbicidal rate of 40% or more and less than 70%) | 5 (Herbicidal rate of 90% or more (almost completely withered)) | 3 (Herbicidal rate of 40% or more and less than 70%) | 3 (Herbicidal rate of 40% or more and less than 70%) | 5 (Herbicidal rate of 90% or more (almost completely withered)) | 5 (Herbicidal rate of 90% or more (almost completely withered)) | 5 (Herbicidal rate of 90% or more (almost completely withered)) | 0 (Herbicidal rate of 5% or less (almost no effect)) | 5 (Herbicidal rate of 90% or more (almost completely withered)) | 5 (Herbicidal rate of 90% or more (almost completely withered)) | 5 (Herbicidal rate of 90% or more (almost completely withered)) | 5 (Herbicidal rate of 90% or more (almost completely withered)) | 5 (Herbicidal rate of 90% or more (almost completely withered)) | 5 (Herbicidal rate of 90% or more (almost completely withered))
